In patent publication US12729388B2, “Methods and systems for producing cellulosic ethanol by biomass saccharification and fermentation” (ZHEJIANG HUAKANG PHARMACEUTICAL CO., LTD., priority 2021, dated 2026):

Test system: cellulase Cellic CTec 2
Test: Validation experiment of the inhibitory effect of glucose and ethanol on the enzymatic hydrolysis reaction
Type: biochemical
Conditions: Group C: 50 g/L ethanol externally added, corn cob waste 15% dry substrate, cellulase 4% of dry substrate, pH 5.0~6.0, 50° C., 300 rpm
Experimental: Validation experiment of the inhibitory effect of glucose and ethanol on the enzymatic hydrolysis reaction. A reaction system was prepared using a citric acid buffer solution with a concentration of 0.1 mol/L. The citric acid buffer solution was added to a corn cob waste system in which a content of the biomass feedstock was 15% of a dry substrate, a pH of the mixture was maintained at 5.0~6.0, and cellulase […] a content of 4% of the dry substrate was added to the mixture to prepare three groups of 1 L reaction systems. [table] The three reaction systems were subjected to enzymatic hydrolysis at 50° C. for 72 hours under a condition of stirring at 300 rpm. Samples were taken from each reaction system every 12 hours to measure an amount of glucose released by the enzymatic hydrolysis, and results are shown in FIG. 3. FIG. 3 is a schematic diagram illustrating that glucose release concentration changes over time in an enzymatic hydrolysis system with external addition of glucose and ethanol according to some embodiments of the present disclosure.

CCO [ethanol]
amount of glucose released during the 72-hour enzymatic hydrolysis, lower than that of the control Group A: 8%
